Laboratory results reported in patent US6572603B1, “Vitamin d solution holder and containers for transfusions” (Otsuka Pharmaceutical Factory, Inc., priority 1998, dated 2003).
Where a name gives a salt, the structure may show the parent alone.

Columns and labels:
[1] = Vitamin contents in transfusion fluid containers of Examples 4 and 5 after autoclaving and 40° C. four-month storage, bioassay (vitamin B12, biotin) or HPLC (other vitamins); assay type: physicochemical
Method: In a holder produced from a three-layered film (the thickness of each layer: 10 μm) in which the outer and the inner layers are made of polyethylene and the intermediate layer is made of ethylene.tetracyclododecene copolymer (trade name: Apel, product of Mitsui Chemicals, Inc.), solution (C) (4 ml) was charged and the inlet was melt-sealed. In a two-compartment container, the prepared holder was attached to one of the compartments. […] The above-described transfusion fluid containers in Examples 4 and 5 were allowed to stand at 40° C. for four months after autoclaving. Thereafter, the contents of vitamins in the containers were measured through a bioassay according to Pharmacopoeia of Japan (for vitamin B12 and biotin) or through HPLC (for other vitamins). The content of each vitamin is represented by a percentage (%) of the initially incorporated amount.

[2] = Vitamin content of solution (C) in polyolefin holders after autoclaving and storage at 40° C. for four months, measured through HPLC (Example 3); assay type: physicochemical
Method: Solution (C) (4 ml) prepared in Example 1 was charged into each of holders made of the materials shown in Table 3, to thereby obtain a holder which contains a solution of vitamin D3. Each of these holders containing a solution of vitamin D3 was subjected to autoclaving and wrapped in a nylon multi-layered-film bag together with a deoxidizing agent (trade name: Ageless, product of Mitsubishi Gas Chem. Co., Inc.). The thus-wrapped holders were allowed to stand at 40° C. for four months. Thereafter, the content of each vitamin in each holder was measured through HPLC. The content of each vitamin is represented by a percentage (%) of the initially incorporated amount.

[3] = Example 4 transfusion fluid container, 40° C., 4 months
[4] = Example 4 transfusion fluid container, immediately after sterilization
[5] = Example 5 transfusion fluid container, 40° C., 4 months
[6] = Example 5 transfusion fluid container, immediately after sterilization
[7] = holder No. 1, polyethylene, 30 μm, resin 7.4 cm^3 per μmol vitamin D, 40° C., 4 months
[8] = holder No. 1, polyethylene, 30 μm, resin 7.4 cm^3 per μmol vitamin D, after sterilization
[9] = holder No. 2, polyethylene, 100 μm, resin 18.5 cm^3 per μmol vitamin D, 40° C., 4 months
[10] = holder No. 2, polyethylene, 100 μm, resin 18.5 cm^3 per μmol vitamin D, after sterilization
[11] = holder No. 3, polypropylene, 30 μm, resin 7.4 cm^3 per μmol vitamin D, 40° C., 4 months
[12] = holder No. 3, polypropylene, 30 μm, resin 7.4 cm^3 per μmol vitamin D, after sterilization
[13] = holder No. 4, polyethylene, 250 μm, resin 123.2 cm^3 per μmol vitamin D, 40° C., 4 months
[14] = holder No. 4, polyethylene, 250 μm, resin 123.2 cm^3 per μmol vitamin D, after sterilization
[15] = holder No. 5, polypropylene, 250 μm, resin 123.2 cm^3 per μmol vitamin D, 40° C., 4 months
[16] = holder No. 5, polypropylene, 250 μm, resin 123.2 cm^3 per μmol vitamin D, after sterilization

Compound	Vitamin content, percentage (%) of the initially incorporated amount [1, 3] [%]	Vitamin content, percentage (%) of the initially incorporated amount [1, 4] [%]	Vitamin content, percentage (%) of the initially incorporated amount [1, 5] [%]	Vitamin content, percentage (%) of the initially incorporated amount [1, 6] [%]	Vitamin content (%) of initially incorporated amount [2, 7] [%]	Vitamin content (%) of initially incorporated amount [2, 8] [%]	Vitamin content (%) of initially incorporated amount [2, 9] [%]	Vitamin content (%) of initially incorporated amount [2, 10] [%]	Vitamin content (%) of initially incorporated amount [2, 11] [%]	Vitamin content (%) of initially incorporated amount [2, 12] [%]	Vitamin content (%) of initially incorporated amount [2, 13] [%]	Vitamin content (%) of initially incorporated amount [2, 14] [%]	Vitamin content (%) of initially incorporated amount [2, 15] [%]	Vitamin content (%) of initially incorporated amount [2, 16] [%]
O=C(O)CCCC[C@@H]1SC[C@@H]2NC(=O)N[C@@H]21 [Biotin, biotin]	99.8	100.4	100.3	98.7										
CC(C)(CO)[C@@H](O)C(=O)NCCCO [Panthenol, panthenol]	96.9	97.4	97.6	98.5										
Cc1ncc(CO)c(CO)c1O.Cl [Pyridoxine hydrochloride (B6), pyridoxine hydrochloride]	100.1	100.5	99.8	99.7										
Cc1cc2nc3c(=O)[nH]c(=O)nc-3n(C[C@H](O)[C@H](O)[C@H](O)COP(=O)(O)O)c2cc1C [Vitamin B2, sodium riboflavin phosphate]	83.2	86.5	84.3	85.9	90.7	94.8	91.2	96.3	91.0	95.4	90.9	94.6	91.2	95.3
CC(=O)Oc1c(C)c(C)c2c(c1C)CCC(C)(CCC[C@H](C)CCC[C@H](C)CCCC(C)C)O2 (some centres unmarked) [Vitamin E, tocopherol acetate]	95.1	94.9	94.8	95.3	98.3	98.7	99.7	99.4	97.3	97.6	95.6	98.2	95.3	97.6

More lines, now with the values ahead:

Vitamin content, percentage (%) of the initially incorporated amount [1, 3] [%]	Vitamin content, percentage (%) of the initially incorporated amount [1, 4] [%]	Vitamin content, percentage (%) of the initially incorporated amount [1, 5] [%]	Vitamin content, percentage (%) of the initially incorporated amount [1, 6] [%]	Vitamin content (%) of initially incorporated amount [2, 7] [%]	Vitamin content (%) of initially incorporated amount [2, 8] [%]	Vitamin content (%) of initially incorporated amount [2, 9] [%]	Vitamin content (%) of initially incorporated amount [2, 10] [%]	Vitamin content (%) of initially incorporated amount [2, 11] [%]	Vitamin content (%) of initially incorporated amount [2, 12] [%]	Vitamin content (%) of initially incorporated amount [2, 13] [%]	Vitamin content (%) of initially incorporated amount [2, 14] [%]	Vitamin content (%) of initially incorporated amount [2, 15] [%]	Vitamin content (%) of initially incorporated amount [2, 16] [%]	Compound
97.5	97.8	99.1	98.3											Nc1nc2ncc(CNc3ccc(C(=O)N[C@@H](CCC(=O)O)C(=O)O)cc3)nc2c(=O)[nH]1 [Folic acid, folic acid]
97.8	98.6	98.5	98.2											NC(=O)c1cccnc1 [Nicotinamide, nicotinamide]
87.4	93.8	86.6	93.5											Cc1ncc(C[n+]2csc(CCO)c2C)c(N)n1 [Thiamin hydrochloride (B1), thiamin hydrochloride]
84.5	87.2	83.9	86.5	80.7	91.1	81.3	90.9	81.2	90.7	78.3	89.1	77.8	88.9	CCCCCCCCCCCCCCCC(=O)OC/C=C(C)/C=C/C=C(C)/C=C/C1=C(C)CCCC1(C)C [Vitamin A, retinol palmitate]
98.3	98.7	97.5	97.8	94.3	96.2	95.4	97.1	94.2	97.3	94.8	97.5	93.1	96.8	O=C1O[C@H]([C@@H](O)CO)C(O)=C1O [Vitamin C, ascorbic acid]
95.3	96.2	95.4	95.8	91.3	95.4	90.8	94.7	91.3	96.1	89.1	94.3	88.7	93.9	CC1=C(C/C=C(\C)CCC[C@H](C)CCC[C@H](C)CCCC(C)C)C(=O)c2ccccc2C1=O [Vitamin K, phytonadione]
89.2	91.3	90.5	96.5											cyanocobalamin [Cyanocobalamin (B12)]
